Measurements: patent publication US8093273B2, “Flavanoids and isoflavanoids for the prevention and treatment of cardiovascular diseases” (Resverlogix Corp., priority 2004, dated 2012)
Counter-ions that a name gives are not always drawn.

Experiments:
[1] = system: human ApoA-I promoter; experiment: ApoA-I promoter induction in Caco-2 intestinal cells (pAI.474-Luc luciferase reporter); type: cell-based; conditions: Caco-2 cells, 15 μM, 48 hours incubation, luciferase activity vs control samples
Experimental: To examine the effects of compounds of the invention to increase ApoA-I expression, Caco-2 cells, an intestinal cell line derived from human epithelial intestinal cells, were grown under conditions recommended by the ATCC and summarized in United States Patent Application Publication No. 20040033480 (“Wong”), incorporated herein by reference.
Briefly, the promoter region of the gene encoding human ApoA-I was isolated and ligated upstream of the firefly luciferase gene to construct the reporter plasmid pAI.474-Luc. This reporter plasmid and pRSV-β-galactosidase (as a control for transfection efficiency) were co-transfected to Caco-2 cells. The Caco-2 cells were then incubated in a MEM selection media containing 20% fetal calf serum supplemented with G418 (final concentration: 0.5 mg/mL, Gibco) to give established strains that stably express from the reporter gene. The strains were seeded in 6-well culture plates and incubated for 48 hours at 37° C. under 5% carbon dioxide. Cells were starved for 24 hrs in MEM selection media containing 0.5% FBS. Then, a solution of a compound of the invention in DMSO or other appropriate solvent was added to the wells at a final concentration of 0 to 100 μM in MEM selection media containing 0.5% FBS.
After further incubation for 48 hours, the cells were harvested and lysed using Reporter Lysis Buffer (PROMEGA E3971), and 50 μL of luciferase assay reagent (PROMEGA E4550 Luciferase Reporter 1000 assay system) was added to measure luciferase activity with a luminometer (Fluoroskan Ascent FL from Thermo electron Corporation). Luciferase activity was normalized to lysate protein concentrations, measured using Bradford Reagent (BioRad Protein Assay reagent Cat #500-0006). The luciferase activity of cells treated with various concentrations of test compounds was compared to that of solvent control sample (i.e., solvent without any compound of the present invention added) and untreated control sample.

Structure (SMILES) | melting point | ApoA-I Promoter Induction [1]
Cl.Nc1cccc2c(=O)cc(-c3ccc(O)c(F)c3)oc12 | 256.4 to 258.5 °C | 
O=c1cc(-c2ccc(C[n+]3ccccc3)cc2)oc2ccc(O)cc12.[Cl-] | 243 to 247 °C | 
O=c1cc(-c2cccc(O)c2)oc2ccccc12 [2-(3-Hydroxyphenyl)-4H-chromen-4-one, 2-(3-hydroxyphenyl)-4H-chromen-4-one, reference compound] |  | increased
O=c1cc(-c2ccc(O)cc2)oc2ccccc12 [2-(4-Hydroxyphenyl)-chromen-4-one, 2-(4-Hydroxy-phenyl)-chromen-4-one, reference compound] |  | increased
COc1cc(-c2cc(=O)c3ccccc3o2)ccc1O [2-(4-hydroxy-3-methoxyphenyl)-4H-chromen-4-one, reference compound] |  | increased
O=c1cc(-c2ccccc2)oc2ccccc12 [2-Phenyl-4H-chromen-4-one, 2-phenyl-4H-chromen-4-one, reference compound] |  | increased
O=c1c(-c2ccc(O)cc2)coc2cc(O)cc(O)c12 [5,7-dihydroxy-3-(4-hydroxyphenyl)-4H-chromen-4-one, reference compound] |  | increased
O=c1cc(-c2ccc(O)cc2)oc2cccc(O)c12 [5-Hydroxy-2-(4-hydroxy-phenyl)-chromen-4-one, reference compound] |  | increased
O=c1cc(-c2ccccc2)oc2cccc(O)c12 [5-Hydroxy-2-phenyl-4H-chromen-4-one, 5-Hydroxy-2-phenyl-chromen-4-one, reference compound] |  | increased
O=c1cc(-c2ccc(O)cc2)oc2ccc(O)cc12 [6-hydroxy-2-(4-hydroxyphenyl)-4H-chromen-4-one, reference compound] |  | increased
O=c1cc(-c2ccc(O)cc2)oc2cc(O)ccc12 [7-Hydroxy-2-(4-hydroxy-phenyl)-chromen-4-one, reference compound] |  | increased
O=c1cc(-c2ccccc2)oc2cc(O)ccc12 [7-Hydroxy-2-phenyl-4H-chromen-4-one, 7-hydroxy-2-phenyl-4H-chromen-4-one, reference compound] |  | increased
COc1ccc(-c2cc(=O)c3c(F)cc(F)cc3o2)cc1 [Example 1, 5,7-Difluoro-2-(4-methoxy-phenyl)-chromen-4-one] |  | no increase
O=c1cc(-c2ccc(O)cc2)oc2cc(F)cc(F)c12 [Example 2, 5,7-Difluoro-2-(4-hydroxyphenyl)-4H-chromen-4-one] |  | increased
COc1ccc(-c2cc(=O)c3ccccc3o2)cc1 [Example 4, 2-(4-Methoxy-phenyl)-4H-chromen-4-one] |  | increased
O=c1cc(-c2ccc(O)cc2)oc2c(O)cccc12 [Example 5, 8-Hydroxy-2-(4-hydroxy-phenyl)-4H-chromen-4-one] |  | increased
CC(=O)Nc1cc(O)ccc1-c1cc(=O)c2ccccc2o1 [Example 8, N-[5-Hydroxy-2-(4-oxo-4H-chromen-2-yl)-phenyl]acetamide] | 253 to 255 °C | 
O=c1cc(-c2ccc(O)cc2[N+](=O)[O-])oc2ccccc12 [Example 10, 2-(4-Hydroxy-2-nitrophenyl)chromen-4-one] | 277 to 279 °C | 
O=c1cc(-c2ccc(O)cc2F)oc2ccccc12 [Example 15, 2-(2-Fluoro-4-hydroxyphenyl)chromen-4-one] | 287 to 289 °C | 
O=c1cc(-c2ccc(O)cc2)oc2c([N+](=O)[O-])cccc12 [Example 16, 2-(4-Hydroxyphenyl)-8-nitro-4H-chromen-4-one] | 299 to 301 °C | 
COc1cccc2c(=O)cc(-c3ccc(O)cc3)oc12 [Example 17, 2-(4-Hydroxyphenyl)-8-methoxy-4H-chromen-4-one] | 281 to 283 °C | increased
COc1cc(OC)c2c(=O)cc(-c3ccc(O)cc3)oc2c1 [Example 18, 2-(4-Hydroxyphenyl)-5,7-dimethoxy-4H-chromen-4-one] | 301 to 303 °C | increased

Structure (SMILES) | melting point | ApoA-I Promoter Induction [1]
O=c1cc(-c2ccc(O)c(Br)c2)oc2ccccc12 [Example 19, 2-(3-Bromo-4-hydroxyphenyl)-4H-chromen-4-one] | 273.5 to 274.9 °C | increased
CN(C)Cc1c(-c2ccc(O)cc2)oc2ccccc2c1=O.Cl [Example 20, 3-((Dimethylamino)methyl)-2-(4-hydroxyphenyl)-4H-chromen-4-one hydrochloride] | 271.5 to 272.3 °C | no increase
N#CCc1c(-c2ccc(O)cc2)oc2ccccc2c1=O [Example 21, 2-(2-(4-Hydroxyphenyl)-4-oxo-4H-chromen-3-yl)acetonitrile] | 258.2 to 259.5 °C | increased
O=c1c(CO)c(-c2ccc(O)cc2)oc2ccccc12 [Example 22, 3-(Hydroxymethyl)-2-(4-hydroxyphenyl)-4H-chromen-4-one] | 234 to 235 °C | 
N#Cc1ccc2oc(-c3ccc(O)cc3)cc(=O)c2c1 [Example 23, 2-(4-Hydroxyphenyl)-4-oxo-4H-chromene-6-carbonitrile] | 296 to 298 °C | 
CC(=O)Oc1ccc(-c2cc(=O)c3cc(Br)cc([N+](=O)[O-])c3o2)cc1F [Example 25, 4-(6-Bromo-8-nitro-4-oxo-4H-chromen-2-yl)-2-fluorophenyl acetate] | 236.2 to 238.5 °C | increased
COCc1c(-c2ccc(O)cc2)oc2ccccc2c1=O [Example 26, 2-(4-Hydroxyphenyl)-3-(methoxymethyl)-4H-chromen-4-one] | 237 to 239 °C | increased
CN(C)Cc1ccc2oc(-c3ccc(O)cc3)cc(=O)c2c1 [Example 28, 6-((Dimethylamino)methyl)-2-(4-hydroxyphenyl)-4H-chromen-4-one] | 99 to 102 °C | 
O=c1cc(-c2ccc(O)cc2)oc2c[n+]([O-])ccc12 [Example 30, 2-(4-Hydroxyphenyl)-4-oxo-4H-pyrano[2,3-c]pyridine 7-oxide] | 307 to 308 °C | no increase
O=c1cc(-c2ccc(O)cc2)oc2c1ccc[n+]2[O-] [Example 31, 2-(4-Hydroxyphenyl)-4-oxo-4H-pyrano[2,3-b]pyridine 8-oxide] | 314 to 315 °C | no increase
O=c1cc(-c2ccc(O)cc2)oc2cc[n+]([O-])cc12 [Example 32, 2-(4-Hydroxyphenyl)-4-oxo-4H-pyrano[3,2-c]pyridine 6-oxide] |  | no increase
N#Cc1ccc(-c2cc(=O)c3cccnc3o2)cc1 [Example 40, 4-(4-Oxo-4H-pyrano[2,3-b]pyridine-2-yl)benzonitrile] | 250 to 252 °C | increased
O=c1cc(-c2ccc(O)cc2)[nH]c2cc(O)cc(O)c12 [Example 50, 5,7-Dihydroxy-2-(4-hydroxyphenyl)-quinolin-4(H)-one] |  | increased
Cn1c(-c2ccc(O)c(F)c2)cc2ncccc2c1=O [Example 56, 7-(3-Fluoro-4-hydroxyphenyl)-6-methyl-1,6-naphthyridin-5(6H)-one] | 182 to 184 °C | no increase
CNc1nc(-c2ccc(O)c(F)c2)cc2c(OC)cccc12 [Example 58, 2-Fluoro-4-(5-methoxy-1-(methylamino)isoquinolin-3-yl)phenol] | 185 to 187 °C | 
COc1cccc2c(=O)[nH]c(-c3ccc(O)c(F)c3)cc12 [Example 59, 3-(3-Fluoro-4-hydroxyphenyl)-5-methoxyisoguinolin-1(2H)-one] | 289 to 291 °C | increased
Oc1ccc(-c2ccc3ccccc3c2)cc1 [Example 65, 4-Naphthalen-2-yl-phenol] |  | increased
O=C1C=C(c2ccc(O)cc2)S(=O)(=O)c2ccccc21 [Example 66, 2-(4-Hydroxy-phenyl)-1,1-dioxo-1H-1λ^6-thiochromen-4-one] | 222 to 224 °C | 
O=c1nc(-c2ccc(O)cc2)oc2ccccc12 [Example 67, 2-(4-Hydroxyphenyl)benzo[e][1,3]oxazin-4-one] | 273 to 275 °C | increased
Oc1ccc(-c2ccc3ccccc3c2)nc1 [Example 68, 6-Naphthalen-2-yl-pyridin-3-ol] | 168 to 169 °C | 
N=C(N)NCCCC(N)C(=O)Oc1ccc(-c2cc(=O)c3ccccc3o2)cc1 (centres unmarked) [Example 76, 2-Amino-5-guanidino-pentanoic acid 4-(4-oxo-4H-chromen-2-yl)phenyl ester trihydrochloride] |  | increased
